Calls of active or inactive are those of the source. The calls are words filed in the database; no cut-off is given here.
Columns and labels:
[1] = tested on: RAW264.7; test: Inhibition of LPS-induced iNOS mRNA expression in mouse RAW264.7 cells by RT-PCR analysis; assay type: functional, cell-based
[2] = tested on: RAW264.7; test: Inhibition of LPS-induced nitric oxide production in mouse RAW264.7 cells at 100 uM after 24 hrs by Griess reaction relative to control; assay type: functional; conditions: for inhibition at 100 µM: Mus musculus, RAW264.7, 24 h
[3] = tested on: RAW264.7; test: Inhibition of LPS-induced nitric oxide production in mouse RAW264.7 cells at 50 uM after 24 hrs by Griess reaction relative to control; assay type: functional; conditions: for inhibition at 50 µM: Mus musculus, RAW264.7, 24 h
[4] = tested on: RAW264.7; test: Inhibition of LPS-induced nitric oxide production in mouse RAW264.7 cells at 25 uM after 24 hrs by Griess reaction relative to control; assay type: functional; conditions: for inhibition at 25 µM: Mus musculus, RAW264.7, 24 h
[5] = tested on: RAW264.7; test: Cytotoxicity against mouse RAW264.7 cells after 24 hrs by MTT assay; assay type: cell-based
[6] = tested on: RAW264.7; test: Inhibition of LPS-induced nitric oxide production in mouse RAW264.7 cells at 12.5 uM after 24 hrs by Griess reaction relative to control; assay type: functional
[7] = tested on: RAW264.7; test: Inhibition of LPS-induced nitric oxide production in mouse RAW264.7 cells at 1.5625 uM after 24 hrs by Griess reaction relative to control; assay type: functional
[8] = tested on: RAW264.7; test: Inhibition of LPS-induced nitric oxide production in mouse RAW264.7 cells at 3.125 uM after 24 hrs by Griess reaction relative to control; assay type: functional
[9] = tested on: RAW264.7; test: Inhibition of LPS-induced nitric oxide production in mouse RAW264.7 cells at 6.25 uM after 24 hrs by Griess reaction relative to control; assay type: functional
[10] = tested on: RAW264.7; test: Inhibition of LPS-induced iNOS mRNA expression in mouse RAW264.7 cells at 100 uM by RT-PCR analysis; assay type: functional, cell-based
[11] = tested on: RAW264.7; test: Cytotoxicity against mouse RAW264.7 cells at 6.25 uM after 24 hrs by MTT assay; assay type: cell-based; conditions: raw264.7, 24 h

| Structure (SMILES) | inhibition (INH) [4] | inhibition at 50 µM [3] | IC50 ([5]; Mus musculus, RAW264.7, 24 h) | inhibition at 100 µM [2] | inhibition at 25 µM [4] | also measured |
| --- | --- | --- | --- | --- | --- | --- |
| COc1cc(-c2cc(OC)c(O)c3c2C[C@H]2[C@H]4CCCC[C@@]34CCN2C)c2c(c1O)[C@]13CCCC[C@@H]1[C@H](C2)N(C)CC3 (stereo in doubt; 2a) [listing 1 of 2 here] |  |  |  |  |  | inhibition [1]: Dose-dependent effect |
| COC1=C[C@@H]2[C@@H]3Cc4c(-c5cc(OC)c(O)c6c5C[C@H]5[C@H]7C=C(OC)C(=O)C[C@@]67CCN5C)cc(OC)c(O)c4[C@]2(CCN3C)CC1=O (stereo in doubt; 1b) | -1.3% |  |  |  |  | inhibition (INH) [2]: -2.1%; inhibition (INH) [3]: 6.6% |
| COc1cc(-c2cc(OC)c(O)c3c2C[C@H]2[C@H]4C[C@@H](OC)[C@H](NS(=O)(=O)c5ccc(C)cc5)C[C@@]34CCN2C)c2c(c1O)[C@@]13CCN(C)[C@@H](C2)[C@H]1C[C@@H](OC)[C@H](NS(=O)(=O)c1ccc(C)cc1)C3 (stereo in doubt; 4b) | -2.9% | -2.2% |  |  |  | IC50 ([5]; raw264.7): 72.9 µM; inhibition (INH) [6]: -4% |
| COC1=C[C@@H]2[C@@H]3Cc4c(-c5cc(OC)c(O)c6c5C[C@H]5[C@H]7C=C(OC)C(=O)C[C@@]67CCN5C)cc(OC)c(O)c4[C@]2(CCN3C)CC1=O (stereo in doubt; 1a) [listing 1 of 2 here] |  |  |  |  |  | inhibition [1]: Dose-dependent effect |
| COc1ccc2c(c1O)[C@@]13CCN(C)[C@@H](C2)[C@H]1C[C@@H](OC)[C@H](NS(C)(=O)=O)C3 |  | -3.7% | > 100 µM | -3.5% | -2.3% |  |
| COC1=C[C@@H]2[C@@H]3Cc4c(-c5cc(OC)c(O)c6c5C[C@H]5[C@H]7C=C(OC)C(=O)C[C@@]67CCN5C)cc(OC)c(O)c4[C@]2(CCN3C)CC1=O (stereo in doubt; 1a) [listing 2 of 2 here] | -2.9% |  | > 100 µM |  |  | inhibition (INH) [2]: 23.7%; inhibition (INH) [3]: 15% |
| COc1cc(-c2cc(OC)c(O)c3c2C[C@H]2[C@H]4CCCC[C@@]34CCN2C)c2c(c1O)[C@]13CCCC[C@@H]1[C@H](C2)N(C)CC3 (stereo in doubt; 2b) [listing 1 of 2 here] |  |  |  |  |  | IC50 ([5]; raw264.7): 14.2 µM; inhibition (INH) [7]: -4.4%; inhibition at 3.125 µM ([8]; Mus musculus, RAW264.7, 24 h): 16.9%; inhibition at 6.25 µM ([9]; Mus musculus, RAW264.7, 24 h): 35.2% |
| COc1ccc2c(c1O)[C@@]13CCN(C)[C@@H](C2)[C@H]1Cc1nc2ccccc2nc1C3 |  |  | 57.9 µM |  | 11.4% | inhibition at 12.5 µM ([6]; Mus musculus, RAW264.7, 24 h): 1.3% |
| N=C(N)NN [PIMAGEDINE] |  | 74.9% |  | 86% | 52.5% |  |
| COc1ccc2c(c1O)[C@@]13CCN(C)[C@@H](C2)[C@H]1C[C@@H](OC)[C@H](NS(=O)(=O)c1ccc(C)cc1)C3 |  | 30% | > 100 µM | 39.8% | 10.9% | inhibition [1]: Dose-dependent effect |
| COC1=C[C@@H]2[C@@H]3Cc4ccc(OC)c(O)c4[C@]2(CCN3C)CC1=O [SINOMENINE] |  | 0.1% | > 100 µM | 12.8% | -3% | inhibition [10]: Active |
| COc1cc(-c2cc(OC)c(O)c3c2C[C@H]2[C@H]4Cc5nc6ccccc6nc5C[C@@]34CCN2C)c2c(c1O)[C@@]13CCN(C)[C@@H](C2)[C@H]1Cc1nc2ccccc2nc1C3 |  |  | 6.3 µM |  |  | inhibition at 1.5625 µM ([7]; Mus musculus, RAW264.7, 24 h): 8.4% |
| COc1cc(-c2cc(OC)c(O)c3c2C[C@H]2[C@H]4C[C@@H](OC)[C@H](NS(C)(=O)=O)C[C@@]34CCN2C)c2c(c1O)[C@@]13CCN(C)[C@@H](C2)[C@H]1C[C@@H](OC)[C@H](NS(C)(=O)=O)C3 (stereo in doubt; 5b) | -8.4% |  |  |  |  | inhibition (INH) [2]: 9.9%; inhibition (INH) [3]: 8.6% |
| COc1cc(-c2cc(OC)c(O)c3c2C[C@H]2[C@H]4C[C@@H](OC)[C@H](NS(C)(=O)=O)C[C@@]34CCN2C)c2c(c1O)[C@@]13CCN(C)[C@@H](C2)[C@H]1C[C@@H](OC)[C@H](NS(C)(=O)=O)C3 (stereo in doubt; 5a) | -0.2% |  | > 100 µM | 9.3% |  | inhibition (INH) [3]: 0.2% |
| COc1cc(-c2cc(OC)c(O)c3c2C[C@H]2[C@H]4CCCC[C@@]34CCN2C)c2c(c1O)[C@]13CCCC[C@@H]1[C@H](C2)N(C)CC3 (stereo in doubt; 2b) [listing 2 of 2 here] |  |  |  |  |  | inhibition [1]: Dose-dependent effect |
| COc1cc(-c2cc(OC)c(O)c3c2C[C@H]2[C@H]4C[C@@H](OC)[C@H](NS(=O)(=O)c5ccc(C)cc5)C[C@@]34CCN2C)c2c(c1O)[C@@]13CCN(C)[C@@H](C2)[C@H]1C[C@@H](OC)[C@H](NS(=O)(=O)c1ccc(C)cc1)C3 (stereo in doubt; 4a) | 4.9% |  | 43.5 µM |  |  | inhibition (INH) [6]: 2.6% |
| COC1=C[C@@H]2[C@@H]3Cc4c(-c5cc(OC)c(O)c6c5C[C@@H]5NCC[C@]67CC(=O)C(OC)=C[C@H]57)cc(OC)c(O)c4[C@]2(CCN3)CC1=O (stereo in doubt; 3a) | -9.3% |  | > 100 µM |  |  | inhibition (INH) [2]: 16%; inhibition (INH) [3]: -12.6% |
| COC1=C[C@@H]2[C@@H]3Cc4ccc(OC)c(O)c4[C@]2(CCN3)CC1=O |  | -0.8% | > 100 µM | 10.7% | -6.1% |  |
| COc1cc(-c2cc(OC)c(O)c3c2C[C@H]2[C@H]4CCCC[C@@]34CCN2C)c2c(c1O)[C@]13CCCC[C@@H]1[C@H](C2)N(C)CC3 (stereo in doubt; 2a) [listing 2 of 2 here] |  |  | 9.5 µM |  |  | Activity [11]: Non-toxic; inhibition (INH) [7]: 2.7%; inhibition (INH) [8]: 17%; inhibition (INH) [9]: 41.6% |
| COC1=C[C@@H]2[C@@H]3Cc4c(-c5cc(OC)c(O)c6c5C[C@@H]5NCC[C@]67CC(=O)C(OC)=C[C@H]57)cc(OC)c(O)c4[C@]2(CCN3)CC1=O (stereo in doubt; 3b) | -11.6% |  |  |  |  | inhibition (INH) [2]: -7.1%; inhibition (INH) [3]: -11% |
| COc1ccc2c(c1O)[C@]13CCCC[C@@H]1[C@H](C2)N(C)CC3 |  | 28.1% | > 100 µM | 30.6% | 12.1% | inhibition [1]: Dose-dependent effect |
